pIC50, pKd: −log10 of the molar value.

The record followed here is patent US20250074911A1, “MACROCYCLIC BTK INHIBITORS” (Crossfire Oncology Holding B.V., priority 2021, published 2025).

In one assay the test system is REC-1 T474I cell lines. As to the kind of experiment: Cell proliferation assay REC-1 BTK T474I knock-in cells (ATPlite, 72 hours). Format: cell-based. The settings on record: Homo sapiens, Rec1; 72 hours; read-out: IC50 REC-1 T474I. In short, it runs like this: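 REC-1 cells carrying CRISPR knock-in mutant BTK, single-cell cloned and sequence-confirmed, were exposed to compound for 72 h and read by ATPlite luminescence. Percentage growth was calculated against the signal at the start of incubation and against untreated 0.3% DMSO wells as maximum growth.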

In another assay the target is BTK T474I (Homo sapiens (Human), UniProt Q06187, T474I). As to the kind of experiment: Binding kinetics measurements (Surface Plasmon Resonance) on BTK T474I. As to conditions: for Tau (h) BTK T474I (Act): target residence time, SPR; for pKd: binding affinity by Surface Plasmon Resonance (SPR). In short, it runs like this:
(§1)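 Protein was immobilized on a streptavidin surface at 4° C, then equilibrated in running buffer containing 1% DMSO at 30 μl/min for at least 30 min. Compounds were injected five times at increasing concentrations (3.16-316 nM) at 22° C. Induced-fit binders were fitted with a two-state reaction model.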

The subject of assay [1] is wt-TMD8 diffuse large B-cell lymphoma cells. As to the kind of experiment: Cell proliferation assay wt-TMD8 (ATPlite, 120 hours). Format: cell-based. The settings on record: B-cell; wt-TMD8 cells, 120 hours, ATPlite; read-out: IC50 wt-TMD8. In short, it runs like this:
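Readout is percentage growth from ATPlite 1Step luminescence after 5 days (120 h) compound treatment of wt-TMD8 lymphoma cells (1600/well, RPMI-1640 + 10% FBS). Time-zero signal separates growth inhibition from cell kill; 0.3% DMSO wells without compound define maximal growth.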

A further assay has as its target BTK T316A (Homo sapiens (Human), UniProt Q06187, T316A). As to the kind of experiment: Binding kinetics measurements (Surface Plasmon Resonance) on BTK T316A. The settings on record: for pKd: binding affinity by Surface Plasmon Resonance (SPR); for Tau (h) BTK T316A (Act): target residence time, SPR. In short, it runs like this:
as §1

The target of another assay is BTK T474S (Homo sapiens (Human), UniProt Q06187, T474S). As to the kind of experiment: Binding kinetics measurements (Surface Plasmon Resonance) on BTK T474S. As to conditions: for residence time: SPR binding kinetics, BTK T474S, read-out: Tau (h) BTK T474S (Act), target residence time (converted); for pKd: binding affinity by Surface Plasmon Resonance (SPR). In short, it runs like this:
as §1

BTK T316A, sequence (Q06187 whole entry T316A): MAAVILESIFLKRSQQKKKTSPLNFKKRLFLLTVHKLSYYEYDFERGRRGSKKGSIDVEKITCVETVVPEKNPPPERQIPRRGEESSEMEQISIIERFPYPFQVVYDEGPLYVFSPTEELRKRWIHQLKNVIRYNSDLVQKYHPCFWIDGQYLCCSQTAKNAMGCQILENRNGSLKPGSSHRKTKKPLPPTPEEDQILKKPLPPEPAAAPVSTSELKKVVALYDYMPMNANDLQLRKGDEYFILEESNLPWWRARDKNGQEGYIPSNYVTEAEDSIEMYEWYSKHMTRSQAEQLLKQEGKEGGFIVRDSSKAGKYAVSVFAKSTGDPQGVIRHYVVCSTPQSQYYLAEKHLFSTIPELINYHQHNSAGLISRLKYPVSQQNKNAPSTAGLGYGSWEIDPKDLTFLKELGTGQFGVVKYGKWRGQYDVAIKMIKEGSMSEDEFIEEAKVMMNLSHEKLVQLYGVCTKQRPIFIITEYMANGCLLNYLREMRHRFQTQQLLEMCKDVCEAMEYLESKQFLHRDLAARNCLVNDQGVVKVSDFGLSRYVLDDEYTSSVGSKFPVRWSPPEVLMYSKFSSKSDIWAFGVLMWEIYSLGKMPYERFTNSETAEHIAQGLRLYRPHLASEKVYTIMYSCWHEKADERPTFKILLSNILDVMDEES
BTK T474I, sequence (Q06187 whole entry T474I): as the sequence (Q06187 whole entry T316A) above, with A316T, T474I counted along it
BTK T474S, sequence (Q06187 whole entry T474S): as the sequence (Q06187 whole entry T316A) above, with A316T, T474S counted along it

Consider `N#Cc1ccnc(NC(=O)c2ccc(-c3nc4n5c(cnc(N)c35)/C=C/CCCCCC(=O)N[C@@H]3CC[C@@H]4C3)cc2)c1` [Example 204], for which the pIC50 (in the assay with REC-1 T474I cell lines; in assay [1]) was above 7.00 throughout. In addition, the “Tau (h) BTK T474I (Act)” value at BTK T474I was 0.90 h.

On to `N#Cc1ccnc(NC(=O)c2ccc(-c3nc4n5c(cnc(N)c35)/C=C/CCOCCC(=O)N[C@@H]3CC[C@@H]4C3)cc2)c1` [Example 201], for which the pIC50 (in the assay on REC-1 T474I cell lines; in assay [1]) was above 7.00 in each case. For the same compound, the “Tau (h) BTK T474I (Act)” value on BTK T474I is 1.15 h.

Consider `Nc1ncc2c3c1c(-c1ccc(C(=O)Nc4cc(C(F)(F)F)ccn4)cc1)nn3[C@@H]1CCC[C@H](C1)NC(=O)CCOC/C=C/2` [Example 25], for which the pIC50 in the assay with REC-1 T474I cell lines was above 7.00. Besides, on BTK T316A, the pKd is above 8.30 and the “Tau (h) BTK T316A (Act)” value is 3.55 h. Also, on BTK T474I, the pKd was above 8.70 and the “Tau (h) BTK T474I (Act)” value was found to be 3.02 h. Besides, at BTK T474S, the residence time is 2.64 h and the pKd is above 8.52. In addition, the pIC50 in assay [1] was above 7.00.

As for `N#Cc1ccnc(NC(=O)c2ccc(-c3nc4n5c(cnc(N)c35)/C=C/CCCCCC(=O)N[C@@H]3CCC[C@@H]4C3)cc2)c1` [Example 184], the pIC50 (with REC-1 T474I cell lines; in assay [1]) was above 7.00 each time. Besides, the “Tau (h) BTK T474I (Act)” value on BTK T474I was 0.85 h.

Consider `C[C@@H]1CC(=O)N[C@@H]2CCC[C@H](C2)n2nc(-c3ccc(C(=O)Nc4cc(C(F)(F)F)ccn4)cc3)c3c(N)ncc(c32)/C=C/CCN1` [Example 45], for which the pIC50 in the assay on REC-1 T474I cell lines is above 7.00. Moreover, at BTK T316A, the pKd was above 8.30 and the “Tau (h) BTK T316A (Act)” value worked out at 6.06 h. Besides, on BTK T474I, the pKd was above 8.70 and the “Tau (h) BTK T474I (Act)” value was found to be 2.64 h. In addition, on BTK T474S, the residence time is 2.94 h and the pKd is above 8.52. Besides, the pIC50 in assay [1] was above 7.00.
